Peptide text beside a SMILES is read from it.
Columns and labels:
[1] = molecular target: T1, binding of TSP-1 protein to CD36, a TSP-1 receptor protein (Homo sapiens, UniProt P07996); test: ELISA: blocking of CD36 binding to TSP-1 protein; settings: for inhibition at 100 µM: 3 h, read-out: Blocking rate (Mean, %); for inhibition at 100 µM / Blocking rate (Mean, %): 100 μM polypeptide, 0.25 μg/mL Fc-tagged CD36, blocking of CD36 binding to TSP-1
T1 construct: purchased novoprotein (TSP-1); R&D Systems (Fc-tagged CD36) CU45 (TSP-1); 1955-CD-050 (CD36-Fc)
Protocol: ELISA assay was performed to detect the ability of the polypeptides to block the binding of TSP-1 protein to CD36, a TSP-1 receptor protein. TSP-1 protein (novoprotein, Catalog No. CU45) was diluted to 2 μg/mL using 100 mM carbonate buffer and added to sample wells (100 μL/well) of a 96-well ELISA plate (Thermo, Catalog No. 437111), and incubated overnight at 4° C.; after washing the plate twice using 1×PBST wash solution, 200 μL of 1.5% BSA (Sigma, Catalog No. B2064) was added to each well, and incubated at 37° C. for 2 h; after washing the plate 3 times using 1×PBST wash solution, the analytes were added (100 μL/well, 3 replicate wells; for the control group, 0.25 μg/mL of Fc-tagged CD36 protein (R&D Systems, Catalog No. 1955-CD-050); and for the polypeptide-treated groups, a mixture containing Fc-tagged CD36 protein and polypeptide at final concentrations of 0.25 μg/mL and 100 μM, respectively), and incubated at 37° C. for 3 h. After washing the plate 5 times using 1×PBST wash solution, a 1:500 dilution solution of FITC-labeled anti-Fc-tagged antibody (Beyotime, Catalog No. A0556) was added, and incubated for 1 h at 37° C.; after washing the plate 5 times using 1×PBST wash solution, a multifunctional ELISA instrument (TECAN, model: Infinite 200 Pro) was used to detect the intensity of FITC fluorescence signal in each sample well. The ability of the polypeptides to block CD36 binding to TSP-1 protein (Table 2-1) was assessed by calculating the ratio of the fluorescence signal from the polypeptide-treated groups to that of the control group, allowing for the determination of the blocking rate of the polypeptides in inhibiting CD36 binding to TSP-1 protein, i.e., (fluorescence signal of the control group-fluorescence signal of the polypeptide-treated group)/fluorescence signal of the control group×100%. Based on the blocking rate results obtained at the single concentration and on the polypeptide molecule properties, the preferred polypeptide molecules were assayed for concentration dependence (at 0 μM, 0.5 μM, 1 μM, 5 μM, 10 μM, and 100 μM), and IC50 values of the polypeptides for blocking CD36 binding to TSP-1 protein were determined to further assess the abilities of the preferred polypeptide molecules to block the binding of CD36 to TSP-1 (Table 2-2).

[2] = system: TSP-1-dependent TGF-β activation; test: TSP-1-dependent TGF-β activation in PMA-differentiated THP-1 cells with 293-TGFβ Res reporter cells; assay type: cell-based; settings: 100 μM polypeptide, 24 h; ratio to negative control group (1.00)
Protocol: In this Example, the inhibitory effects of the polypeptides on TSP-1-dependent TGF-β activation were detected using a model based on a high TSP-1 expressing cell. In the assay, THP-1 cells (American Typical Culture Collection, ATCC, TIB-20) were induced by phorbol ester (Phorbol 12-myristate 13-acetate, PMA) (Sigma, Catalog No. P1585) and differentiated into macrophage-like cells with distinct macrophage expression profiles.
The experiment was performed as follows: THP-1 cells were inoculated in a 96-well plate, and treated with 300 nM PMA for differentiation and adherence to form macrophage-like cells. 100 μM polypeptide was added (For the negative control group, an equal volume of PBS (the solvent for the polypeptide) was added, while the positive control group received an equal concentration of the polypeptide shown in SEQ ID NO: 50.) The cells were treated for 24 hours, and then a 293 reporter cell strain, 293-TGFβ Res cell strain (novoprotein, Catalog No. XCC03-1), was added for detecting TGF-β activity, and co-cultivated for 24 hours. Bio-Lite Luciferase Assay lysate comprising fluorescent substrate (Vazyme, Catalog No. DD1201-01) was added, and the fluorescent intensity was detected using a multifunctional microplate reader (TECAN, model Infinite 200 Pro). The inhibitory effect of the polypeptide on TGF-β activation was assessed by calculating the ratio of the fluorescence signal from the polypeptide-treated groups to that of the negative control group.

active TGF-β = test: Active TGF-β level in lung tissue, bleomycin (BLM) mouse lung fibrosis model; assay type: in vivo; settings: single intratracheal dose 3 mg/kg on Day 7, lung 24 h later, BLM model group = 100.00
Excerpt: This Example was to evaluate the inhibitory effect of polypeptides on active TGF-β level during the progression of fibrotic disease. In this Example, a mouse lung fibrosis model induced by bleomycin (BLM) was used. The BLM animal model offers advantages, including a close mimicry of the pathological features of the primary disease, ease of use, and good reproducibility. It is the most representative model for studying the mechanisms of fibrosis and is recommended for evaluating drug efficacy.
In this Example, 6 to 8-week-old male C57/6J mice weighing 18-20 g were used as subjects for the study. The experimental animals were randomized into groups, 8 animals in each group, and the expressions of pro-fibrotic factors were detected at the endpoint of the experiment (Day 8) in this model. In this example, an aerosol intratracheal metered dosing applicator (Yuyan, model YAN30012) was utilized for intratracheal administration during the modeling and drug delivery processes. The dosing was performed as follows (An Official American Thoracic Society Workshop Report: Use of Animal Models for the Preclinical Assessment of Potential Therapies for Pulmonary Fibrosis, Am J Respir Cell Mol Biol Vol 56, Iss 5, pp 667-679, May 2017): The experimental animals were anesthetized with aerosolized isoflurane (RWD, lot no. 22041701) using a small animal anesthesia machine (RWD, model R500IE). Animals in the appropriate anesthetic state were positioned supine with heads facing up and bodies tilted on an operating platform (tilted at approximately) 60°, secured by their incisors. The practitioner gently lifted the tongue with tissue forceps in the right hand, pushing it outward and upward to open the animal's lower jaw. Holding the laryngoscope (Yuyan, model SR310-RW) in the left hand, the practitioner slid its anterior leaf-shaped blade along the midline of the tongue into the oral cavity until reaching the glottis, gently pressing the body and root of the tongue upward. The needle of the drug applicator was then inserted through the mouth into the glottis alongside the laryngoscope, and 50 μL of liquid was quickly injected. On the day of modeling (Day 1), the experimental animals were randomly assigned to groups and administered a 0.7 USP/kg dose of bleomycin solution (HanHui Pharmaceutical, Batch No. 20080511) via the tracheal route to induce the model. On Day 7, each peptide-treated group received a single intratracheal dose of 50 μL peptide drug (at a dosage of 3 mg/kg), while the model group was given an equal volume of solvent (saline, Kelong, Batch No. L221062501) as a control. Twenty-four hours after drug administration, the animals were dissected to collect lung tissue, which was ground in liquid nitrogen to extract total protein from the lung tissue. The active TGF-β content in the lung tissue of mice from each group was measured using the TGF-β ELISA kit (BOSTER, catalog number EK0515). The ratio of active TGF-β content between the peptide-treated group and the model group was calculated to evaluate the effect of the peptide on active TGF-β level.

P-Smad2/3 = P-Smad2/3 content in lung tissue, BLM mouse fibrosis model; assay type: in vivo; settings: single intratracheal dose 3 mg/kg on Day 7, lung 24 h later, BLM model group = 100.00
Excerpt: This example aimed to evaluate the inhibitory effect of polypeptides on the TGF-β downstream signaling pathway during fibrosis progression. TGF-β intracellular signaling relies on the phosphorylation events of Smad family proteins. The increase in Smad2/3 phosphorylation levels is an important indicator that signal transduction has occurred in the TGF-β signaling pathway.
In this example, 6- to 8-week-old male C57/6J mice weighing 18-20 g were used as subjects for the study. The experimental animals were randomized into groups, eight animals in each group. In this example, intratracheal administration was performed using an aerosol intratracheal metered dosing applicator during both the modeling and drug delivery processes, as described in Example 4. On the day of modeling (Day 1), the experimental animals were randomly assigned to groups and administered a 0.7 USP/kg dose of bleomycin solution (HanHui Pharmaceutical, Batch No. 20080511) via the tracheal route to induce the model. On Day 7, each peptide-treated group received a single intratracheal dose of peptide drug at a dosage of 3 mg/kg, while the BLM model group was given an equal volume of solvent (saline) as a control. Twenty-four hours after drug administration, the animals were dissected, and the lung tissues were collected and frozen in liquid nitrogen for future use. Total protein from the lung tissue was extracted after grinding the tissue in liquid nitrogen, and the total P-Smad2/3 content in the tissue was measured by using P-Smad2/3 ELISA kit (CST, Catalog No. 12001C). The ratio of the P-Smad2/3 content between the peptide-treated group and the model group was calculated to evaluate the effect of the peptide on TGFβ signaling.

T1 sequence (P07996 19-1170): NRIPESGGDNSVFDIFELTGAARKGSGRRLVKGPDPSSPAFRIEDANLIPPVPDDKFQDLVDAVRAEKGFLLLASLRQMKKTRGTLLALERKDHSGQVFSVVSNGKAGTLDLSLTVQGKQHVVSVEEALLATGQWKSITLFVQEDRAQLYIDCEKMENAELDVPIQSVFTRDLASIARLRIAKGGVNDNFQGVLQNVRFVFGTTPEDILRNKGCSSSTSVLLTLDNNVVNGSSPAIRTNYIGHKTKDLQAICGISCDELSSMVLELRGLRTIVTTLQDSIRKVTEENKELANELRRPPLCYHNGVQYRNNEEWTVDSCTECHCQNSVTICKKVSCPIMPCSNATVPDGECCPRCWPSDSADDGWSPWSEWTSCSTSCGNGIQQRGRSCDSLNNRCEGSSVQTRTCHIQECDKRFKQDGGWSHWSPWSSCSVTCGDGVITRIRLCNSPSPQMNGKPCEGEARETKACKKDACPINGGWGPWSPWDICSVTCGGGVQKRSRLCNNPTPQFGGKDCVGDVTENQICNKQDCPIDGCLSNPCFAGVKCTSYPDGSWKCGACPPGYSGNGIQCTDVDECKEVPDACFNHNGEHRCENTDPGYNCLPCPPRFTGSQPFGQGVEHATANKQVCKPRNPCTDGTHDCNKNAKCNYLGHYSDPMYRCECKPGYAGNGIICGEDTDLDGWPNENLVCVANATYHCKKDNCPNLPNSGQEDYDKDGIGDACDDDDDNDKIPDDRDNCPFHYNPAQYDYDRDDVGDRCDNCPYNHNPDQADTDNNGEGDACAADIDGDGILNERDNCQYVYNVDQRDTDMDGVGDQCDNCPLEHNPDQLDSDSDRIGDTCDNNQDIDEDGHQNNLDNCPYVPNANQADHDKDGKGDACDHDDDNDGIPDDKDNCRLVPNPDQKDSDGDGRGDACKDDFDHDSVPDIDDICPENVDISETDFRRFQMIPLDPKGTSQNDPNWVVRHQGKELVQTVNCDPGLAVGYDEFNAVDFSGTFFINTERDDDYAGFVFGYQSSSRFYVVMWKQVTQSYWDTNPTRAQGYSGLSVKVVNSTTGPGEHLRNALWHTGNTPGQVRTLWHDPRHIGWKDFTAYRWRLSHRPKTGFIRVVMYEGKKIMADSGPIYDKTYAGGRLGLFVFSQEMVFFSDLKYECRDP

Row | inhibition at 100 µM [1] [%] | IC50 ([1]; concentrations 0-100 μM) [µM] | Blocking rate (Mean, %) [1] [%] | Compound | Mean (relative fluorescence intensity) [2] | active TGF-β content in lung tissue, ratio to model group, Mean(%) (active TGF-β) | P-Smad2/3 content in lung tissue, ratio to model group, Mean(%) (P-Smad2/3) | active TGF-β content in lung tissue, ratio to model group, Mean(%) (active TGF-β; 3 mg/kg) | P-Smad2/3 content in lung tissue, ratio to model group, Mean(%) (P-Smad2/3; 3 mg/kg)
1 | 27.9 | – | – | Ac-TQDPEDN-NH2 [SEQ ID NO: 14, Ac-Thr-Gln-Asp-Pro-Glu-Asp-Asn-NH2] | 0.70 | 92.49 | 87.39 | – | –
2 | 32.6 | 10.6 | – | Ac-TQDAEDNTAS-NH2 [SEQ ID NO: 24, Ac-Thr-Gln-Asp-Ala-Glu-Asp-Asn-Thr-Ala-Ser-NH2] | 0.57 | 76.35 | 89.89 | – | –
3 | – | – | – | C[C@@H]1NC(=O)[C@H](CC(=O)O)NC(=O)[C@H](CCC(N)=O)NC(=O)[C@H]([C@@H](C)O)NC(=O)[C@H](CC(N)=O)NC(=O)[C@H](CC(=O)O)NC(=O)[C@H](CCC(=O)O)NC1=O [SEQ ID NO: 45, cyclo[Gln-Asp-Ala-Glu-Asp-Asn-Thr]] (cyclo(AEDNTQD)) | 0.52 | – | – | 81.10 | 82.42
4 | 29.7 | – | – | Ac-TQDPAEDN-NH2 [SEQ ID NO: 48, Ac-Thr-Gln-Asp-Pro-Ala-Glu-Asp-Asn-NH2] | – | 82.97 | 80.57 | – | –
5 | – | – | 18.39 | Ac-Thr-Gln-Asp-Ala-Glu-Asp-Leu-NH2 (Ac-TQDAEDL-NH2) [SEQ ID NO: 12] | – | 81.77 | 90.48 | – | –
6 | – | – | 15.87 | Ac-Thr-Glu-Asp-Ala-Glu-Asp-Asn-NH2 (Ac-TEDAEDN-NH2) [SEQ ID NO: 09] | – | 72.26 | 89.41 | – | –
7 | 23.1 | – | – | Ac-TQDAEDNTVSFLQ-NH2 [SEQ ID NO: 36, Ac-Thr-Gln-Asp-Ala-Glu-Asp-Asn-Thr-Val-Ser-Phe-Leu-Gln-NH2] | 0.83 | 77.42 | 79.00 | – | –
8 | – | – | 16.70 | Ac-Thr-Asn-Asp-Ala-Glu-Asp-Asn-NH2 (Ac-TNDAEDN-NH2) [SEQ ID NO: 08] | – | 80.31 | 83.02 | – | –
9 | – | – | 29.16 | Ac-Thr-Gln-Asp-Ala-Glu-Asp-Asn-Thr-Val-NH2 (Ac-TQDAEDNTV-NH2) [SEQ ID NO: 17] | – | 71.36 | 74.12 | – | –
